SMILES strings stand for the structures. Several values for one entry are separate records, joined by “and”; a condition that tells them apart may be missing. Equal entries are not always repeated. Where two headings read alike, the source gives them in different places.

One may read the IC50 as the point on the concentration scale where inhibition reaches its midpoint. Broadly, the IC99 is the point of the concentration-response curve where the effect stands at 99%.

The test system of data set [1] is SFTSV. The note with it: read-out: IC50 against SFTSV; cited from earlier work.
A short description of the next data set: in vitro. The note with it: African green monkey.
Data set [2] concerns SFTSV. Put plainly: microbe, parasite or virus in culture. It counts as cell-based. The note with it: for IC50: Severe fever with thrombocytopenia syndrome virus.
In data set [3] the test system is SFTSV. It counts as cell-based, Severe fever with thrombocytopenia syndrome virus.
For data set [4], the system named is SFTSV. Put plainly: microbe, parasite or virus in culture. The class given is cell-based.
For data set [5], the system named is SFTSV. It counts as cell-based, Severe fever with thrombocytopenia syndrome virus. The source holds these as a separate data set.
Data set [6] has as its system SFTSV. The class given is cell-based, Severe fever with thrombocytopenia syndrome virus. The note with it: pH 5.
The test system of data set [7] is SFTSV. It counts as cell-based, Severe fever with thrombocytopenia syndrome virus. This is another data set of the same source.
The subject of data set [8] is SFTSV. The class given is cell-based, Severe fever with thrombocytopenia syndrome virus. This is another data set of the same source.

With `Nc1ccn([C@@H]2O[C@H](CO)[C@@H](O)[C@H]2F)c(=O)n1` [2′-fluoro-2′-deoxycytidine], the IC50 in the data set on SFTSV [1] was 3.7 µM.
In the data set “in vitro”, `Oc1c(Br)cc(Br)c2cccnc12` [Broxyquinoline, broxyquinoline] showed a CC50 of 36.4 ± 5.5 µM. Besides, in the data set on SFTSV [2], the IC99 is on record as 16.3 ± 4.3 µM, the “Selectivity Index (CC50/IC50)” value is 6.3 and half-maximal inhibition (IC50) required 5.8 ± 1.3 µM.
In the data set “in vitro”, `CC1=NN(c2ccc(C)c(C)c2)C(=O)/C1=N\Nc1cccc(-c2cccc(C(=O)O)c2)c1O` [Eltrombopag, eltrombopag] showed a CC50 of 18.4 ± 0.2 µM. In the data set with SFTSV [2], the IC99 stood at 10.3 ± 3.4 µM, the “Selectivity Index (CC50/IC50)” value is recorded as 4.5 and the IC50 came to 4.1 ± 0.2 µM.
With `Oc1c(Cl)cc(Cl)c(Cl)c1Cc1c(O)c(Cl)cc(Cl)c1Cl` [Hexachlorophene, hexachlorophene], the “virus infectivity after pre-incubation of SFTSV with drug” value in the data set with SFTSV [3] is recorded as “not significantly”. Moreover, the plaque reduction in the data set with SFTSV [4] came to 100%. Further, the IC50 in the data set with SFTSV [4] (Severe fever with thrombocytopenia syndrome virus, Vero, read-out: IC50, plaque reduction assay) was 2.6 ± 0.14 µM. The CC50 in the data set “in vitro” is 24.3 ± 3.2 µM. Also, in the data set on SFTSV [2], the IC99 worked out at 7.5 ± 1.2 µM, the “Selectivity Index (CC50/IC50)” value is given as 18.7 and the IC50 is 1.3 ± 0.3 µM. Further, the IC50 in the data set with SFTSV [2] (read-out: IC50 against SFTSV) lay within 1.3 to 2.6 µM. Further, the “intracellular viral RNA load vs DMSO, drug co-mixed with SFTSV” value with SFTSV [5] is on record as “Significantly lower viral RNA load”. Besides, the “syncytium formation in SFTSV-infected cells” value in the data set on SFTSV [6] was “dramatically inhibited”. Moreover, in the data set with SFTSV [7], the “inhibitory activity on virus attachment, cells pretreated with drug” value is listed as “no significant”.
For the molecule `CNC(=O)c1cc(Oc2ccc(NC(=O)Nc3ccc(Cl)c(C(F)(F)F)c3)c(F)c2)ccn1` [Regorafenib, regorafenib], in “in vitro”, the CC50 amounted to 31.3 ± 0.5 µM. In addition, in the data set with SFTSV [2], the IC99 is recorded as 11.3 ± 0.5 µM, the “Selectivity Index (CC50/IC50)” value was found to be 7.0 and the IC50 was found to be 4.5 ± 0.5 µM.
In the same order, the values of `Oc1cc(Cl)ccc1Oc1ccc(Cl)cc1Cl` [Triclosan, triclosan] are 17.7 ± 2.9 µM, 8.5 ± 2.1 µM, 5.5 and 3.2 ± 0.4 µM.
For `CCN(CC)Cc1cc(Nc2ccnc3cc(Cl)ccc23)ccc1O` [amodiaquine], the IC50 in the data set with SFTSV [1] was 19.1 µM.
`O=C(O)/C=C/c1ccc(O)c(O)c1` [caffeic acid]: in the data set with SFTSV [1], the IC50 was 180 µM.
With `NC(=O)c1nc(F)c[nH]c1=O` [favipiravir], the “fold read-out between drug-treated and DMSO-treated groups by ELISA” value in the data set with SFTSV [8] is > 10 fold and > 15 fold. Moreover, the IC50 with SFTSV [1] is 25 µM. Also, the “difference in SFTSV RNA load between drug-treated and DMSO-treated groups” value in the data set on SFTSV [2] is “approximately 4 log10”. In addition, the “intracellular viral RNA load vs DMSO, drug co-mixed with SFTSV” value in the data set with SFTSV [5] was “no statistically significant difference”.
Take `NC(=O)c1ncn([C@@H]2O[C@H](CO)[C@@H](O)[C@H]2O)n1` [ribavirin]: the IC50 with SFTSV [1] was 40.1 µM.

The values are drawn from paper PMC6520937 (Viruses, 2019).
